The text below walks through data of patent US20230391758A1, “MODIFIED BENZOFURAN-CARBOXAMIDES AS GLUCOSYLCERAMIDE SYNTHASE INHIBITORS” (MERCK SHARP & DOHME CORP., priority 2020, published 2023).

In this assay the target is GCS enzyme (glucosylceramide synthase) contained within Golgi preparations isolated from human A375 malignant melanoma skin cells (Homo sapiens (Human), UniProt Q16739). The assay can be described thus: UDP-Glo glucosylceramide synthase biochemical assay. Particulars: 1.5 μg crude golgi preparation from A375 cells; C6 ceramide and UDP-glucose at 2×Km; 20 h incubation at room temperature; UDP detected by luminescence. An excerpt: UDP-Glo™ Glucosylceramide Synthase Biochemical Assay
GCS enzyme (glucosylceramide synthase) contained within Golgi preparations isolated from human A375 malignant melanoma skin cells, sequence (Q16739 whole entry): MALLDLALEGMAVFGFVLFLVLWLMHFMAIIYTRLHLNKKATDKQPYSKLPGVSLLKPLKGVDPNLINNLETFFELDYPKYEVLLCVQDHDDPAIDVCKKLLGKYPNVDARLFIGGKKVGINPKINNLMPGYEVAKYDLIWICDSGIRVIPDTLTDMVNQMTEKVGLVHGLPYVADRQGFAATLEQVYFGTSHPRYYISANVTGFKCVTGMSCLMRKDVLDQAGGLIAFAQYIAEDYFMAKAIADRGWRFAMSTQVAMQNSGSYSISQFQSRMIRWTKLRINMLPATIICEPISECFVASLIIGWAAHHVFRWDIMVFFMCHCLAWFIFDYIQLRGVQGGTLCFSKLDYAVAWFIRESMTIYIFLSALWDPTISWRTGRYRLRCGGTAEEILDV
A UDP-Glo™ glucosylceramide synthase biochemical assay was utilized to evaluate the effect of test compounds on the activity of endogenous levels of GCS enzyme contained within Golgi preparations isolated from human A375 malignant melanoma skin cells. The UDP-Glo™ glucosylceramide synthase assay uses UDP-Glucose as a nucleotide-glycosyl donor and ceramide as substrate acceptor molecules. In the reaction, glucosylceramide synthase (GCS) transfers glucose from UDP-Glucose to ceramide. Glucosylceramide and UDP are released as products.
Using Promega's UDP-Glo™ Glycosyltransferase assay kit (Promega Corporation, Madison, WI, USA (Promega)), GCS activity was indirectly measured by detecting the amount of UDP produced. An aliquot of GCS enzyme (1.5 μg crude golgi preparation, total protein) and titrated test compound were aliquoted to each well and incubated for 30 minutes at room temperature. Substrate mixture was prepared by mixing C6 ceramide (Avanti Polar Lipids, Alabaster, AL USA (Avanti)) (micelles prepared at 0.6 mM in 0.6 mM DOPC) and UDP-glucose (20 μ.M; Promega), at concentrations equivalent to 2×Km, in assay buffer (25 mM HEPES (pH 7.5), 50 mM KCl, 5 mM MgCl2). An equivalent volume of substrate mixture was then added to each well. Following a 20 h incubation at room temperature to allow for GCS turnover of substrate, an equal volume of UDP detection reagent (Promega) was added to each well and incubated for an additional 75 minutes at room temperature to simultaneously convert the accumulated UDP product into ATP and generate light in a luciferase reaction. The generated light was detected using a luminometer. […] luminescence values (RLUs) were normalized to mean “min” and “max” effects, as determined on each plate. “Min” was defined as the mean of the values of the wells treated with vehicle (DMSO) and which represent 0% inhibition; “max” was defined as the mean of the values of the wells treated with a reference inhibitor and which represent the 100% effect. Values for % Emax and EC50 were determined by best-fitting the normalized data to a curve in Activity Base along a four-parameter logistic nonlinear regression (4PL) model (based on the Levenberg-Marquardt algorithm and defined by the equation below): […]
where: n is 4PMin (bottom of the curve); m is 4PMax (top of the curve); i is IP (inflection point of curve); and p is slope. See Levenberg, K., “A Method for the Solution of Certain Problems in Least Squares”, Quart. Appl. Math. 2, (1944), pp 164-168 and Marquardt, D., “An Algorithm for Least Squares Estimation on Nonlinear Parameters”, SIAM J. Appl. Math. 11, (1963) pp 431-441.
`N#Cc1ccc(OC(F)F)c(-c2cccc3cc(C(=O)NC45CCC(O)(CC4)C5)oc23)c1` [Compound 4, 7-[5-cyano-2-(difluoromethoxy)phenyl]-N-(4-hydroxynorbornan-1-yl)benzofuran-2-carboxamide] gave an EC50 of 0.1 nM. `O=C(Nc1cccnc1)c1cc2cccc(-c3ccccc3OCC(F)(F)F)c2o1` [Compound 7, N-(3-pyridyl)-7-[2-(2,2,2-trifluoroethoxy)phenyl] benzofuran-2-carboxamide] registered an EC50 of 0.99 nM.

Molecule `COc1ccc(C#N)cc1-c1cccc2cc(C(=O)NC34CCC(O)(CC3)C4)oc12` [Compound 3, 7-(5-cyano-2-methoxy-phenyl)-N-(4-hydroxynorbornan-1-yl)benzofuran-2-carboxamide] came in with an EC50 of 0.097 nM.

The molecule `CC(CO)C12CC(NC(=O)c3cc4cccc(-c5ccccc5OCC(F)(F)F)c4o3)(C1)C2` (racemic) [Compound 9, (R and S)-N-[3-(2-hydroxy-1-methyl-ethyl)-1-bicyclo[1.1.1]pentanyl]-7-[2-(2,2,2-trifluoroethoxy)phenyl] benzofuran-2-carboxamide] had an EC50 of 1.7 nM.

`CCCCOc1ccccc1-c1cccc2cc(C(=O)NC3CN4CCC3CC4)oc12` (racemic) [Compound 21, (R and S)-7-(2-butoxyphenyl)-N-quinuclidin-3-yl-benzofuran-2-carboxamide] yielded an EC50 of 0.021 nM. Against the preceding molecule, the EC50 is about 81-fold lower. Then `CCOc1ccc(F)cc1-c1cccc2cc(C(=O)N[C@@H]3CC[C@H](O)C3)oc12` [Compound 33, 7-(2-ethoxy-5-fluoro-phenyl)-N-[(1R,3S)-3-hydroxycyclopentyl] benzofuran-2-carboxamide], with 6.5 nM; and `CCCOc1ccccc1-c1cccc2cc(C(=O)NC3CCNCC3(F)F)oc12` (single isomer, unassigned) [Compound 18, N-[(4R or 4S)-3,3-difluoro-4-piperidyl]-7-(2-propoxyphenyl)benzofuran-2-carboxamide], with 140 nM; and `CC(C)Oc1ccc(C#N)cc1-c1cc(Cl)cc2cc(C(=O)N[C@H]3C[C@@H](O)C3)oc12` [Compound 24, Cis-5-chloro-7-(5-cyano-2-isopropoxy-phenyl)-N-(3-hydroxycyclobutyl) benzofuran-2-carboxamide], with 0.044 nM. Then `COc1cc(-c2ccccc2OCC(F)(F)F)c2oc(C(=O)NC3CCC(CO)CC3)cc2c1` (centres unmarked) [Compound 31, N-[4-(hydroxymethyl)cyclohexyl]-5-methoxy-7-[2-(2,2,2-trifluoroethoxy)phenyl] benzofuran-2-carboxamide], with 4.1 nM; and `COc1ncc(Cl)cc1-c1cccc2cc(C(=O)NC34CCC(O)(CC3)C4)oc12` [Compound 8, 7-(5-chloro-2-methoxy-3-pyridyl)-N-(4-hydroxynorbornan-1-yl)benzofuran-2-carboxamide], with 1.1 nM; and `COc1ccc(Cl)cc1-c1cc(F)cc2cc(C(=O)N[C@H]3C[C@@H](CO)C3)oc12` [Compound 28, Cis-7-(5-chloro-2-methoxy-phenyl)-5-fluoro-N-[3-(hydroxymethyl)cyclobutyl]be nzofuran-2-carboxamide], with 0.6 nM. Then `O=C(NC1CCC(O)CC1F)c1cc2cccc(-c3ccccc3OCC(F)(F)F)c2o1` (centres unmarked) [Compound 11, N-(2-fluoro-4-hydroxy-cyclohexyl)-7-[2-(2,2,2-trifluoroethoxy)phenyl] benzofuran-2-carboxamide], with 7.1 nM. `O=C(N[C@H]1CC[C@H](O)CC1)c1cc2cccc(-c3ccccc3OCC(F)(F)F)c2o1` [Compound 34, Trans-N-(4-hydroxycyclohexyl)-7-[2-(2,2,2-trifluoroethoxy)phenyl] benzofuran-2-carboxamide]: the EC50 stood at 34 nM. Against the preceding molecule, the EC50 is about 4.8-fold higher.

Molecule `CCCOc1ccccc1-c1cccc2cc(C(=O)NC3CNCCC3(F)F)oc12` (single isomer, unassigned) [Compound 36, (R or S)-N-(4,4-difluoro-3-piperidyl)-7-(2-propoxyphenyl)benzofuran-2-carboxamide] had a 50% effective concentration (EC50) of 1.4 nM. Compared with the last molecule, the EC50 is about 24-fold lower. Molecule `O=C(Nc1ccc2cnccc2n1)c1cc2cccc(-c3ccccc3OCC(F)(F)F)c2o1` [Compound 22, N-(1,6-naphthyridin-2-yl)-7-[2-(2,2,2-trifluoroethoxy)phenyl] benzofuran-2-carboxamide] showed an EC50 of 0.023 nM. Then `COCCOc1ccccc1-c1cccc2cc(C(=O)Nc3cccnc3)oc12` [Compound 35, 7-[2-(2-methoxyethoxy)phenyl]-N-(3-pyridyl)benzofuran-2-carboxamide], with 94 nM; and `COc1ccc(C#N)cc1-c1cc(Cl)cc2cc(C(=O)N[C@@H]3CC[C@H](O)C3)oc12` [Compound 5, 5-chloro-7-(5-cyano-2-methoxy-phenyl)-N-[(1R,3S)-3-hydroxycyclopentyl] benzofuran-2-carboxamide], with 0.17 nM; and `Cc1cccc(NC(=O)c2cc3cccc(-c4c(C)nn(C)c4C)c3o2)n1` [Compound 12, N-(6-methyl-2-pyridyl)-7-(1,3,5-trimethylpyrazol-4-yl)benzofuran-2-carboxamide], with 21 nM. For the molecule `COc1ccc(C#N)cc1-c1cccc2cc(C(=O)N[C@@H]3CC[C@H](O)C3)oc12` [Compound 19, 7-(5-cyano-2-methoxyphenyl)-N-((1R,3S)-3-hydroxycyclopentyl)benzofuran-2-carboxamide], a half-maximal effect (EC50) was put at 0.26 nM. This EC50 is about 81-fold lower than that of the molecule before. With `N#Cc1ccc(F)c(-c2cccc3cc(C(=O)N[C@@H]4CC[C@H](O)C4)oc23)c1` [Compound 32, 7-(5-cyano-2-fluoro-phenyl)-N-[(1R,3S)-3-hydroxycyclopentyl] benzofuran-2-carboxamide] the figure was 5 nM; with `O=C(NC12CCC(O)(CC1)C2)c1cc2cccc(-c3cc(Cl)cnc3OC(F)F)c2o1` [Compound 6, 7-[5-chloro-2-(difluoromethoxy)-3-pyridyl]-N-(4-hydroxynorbornan-1-yl)benzofuran-2-carboxamide], 0.87 nM. Then `CC(C)Oc1ccc(C#N)cc1-c1cc(F)cc2cc(C(=O)NC(C)(C)CO)oc12` [Compound 29, 7-(5-cyano-2-isopropoxy-phenyl)-5-fluoro-N-(2-hydroxy-1,1-dimethyl-ethyl)benzofuran-2-carboxamide], with 0.82 nM; and `O=C(NC1CNCCC1(F)F)c1nc2cccc(-c3ccccc3OCC(F)(F)F)c2o1` (racemic) [Compound 39, (R and S)-N-(4,4-difluoropiperidin-3-yl)-7-(2-(2,2,2-trifluoroethoxy)phenyl)benzo[d]oxazole-2-carboxamide], with 44 nM.
